Test results from US10722563B2, “Prostate-specific tumor antigens and uses thereof” (SHENZHEN INNOVATION IMMUNOTECHNOLOGY CO., LTD., priority 2012, dated 2020).

Tests used:
Assay type in all cases: cell-based, human
[1] = tested on: PBMCs of HLA-A2+ prostate cancer patients; assay: In vitro stimulation of peptide-specific T cells in PBMCs of prostate cancer patients, IFN-γ release by ELISA; conditions: PBMCs stimulated in vitro with peptide; for induction of peptide-specific CTLs from PBMCs of prostate cancer patients: Table 3
Procedure: (§1) Ten HLA-A2+ prostate cancer patients and ten HLA-A2+ healthy subjects were enrolled in this study after written informed consent was obtained. All protocols were approved by the Institutional Review Board (IRB) of Baylor College of Medicine before commencing studies. 20 mL of peripheral blood was obtained from each person, and peripheral blood mononuclear cells (PBMCs) were isolated by density gradient centrifugation using Lymphoprep (Nycomed Pharma AS; Oslo, Norway). The freshly isolated PBMCs were cryopreserved for later use in 1 mL freezing medium containing 90% FCS and 10% dimethyl sulfoxide (DMSO) at −140° C. The expression of HLA-A2 molecules on PBMCs obtained from cancer patients and healthy subjects was verified by flow cytometry with FITC-labeled HLA-A2 mAb BB7.2 (BD Pharmingen, San Diego, Calif., USA).
(§2) PBMCs (1×10^5 cells/well) from either healthy subjects or prostate cancer patients were incubated with standard peptide concentrations of 20 μg/mL per peptide in 96-well U-bottom microplates (BD, Franklin Lakes, N.J., USA) in 200 μL of T-cell medium (TCM), consisting of RPMI 1640 (Mediatech, Manassas, Va., USA), 10% human AB serum (Valley Biomedical, Winchester, USA), 50 μM of 2-mercaptoethanol, 100 U/mL of interleukin-2 (IL-2), and 0.1 mM MEM nonessential amino acid solution (Invitrogen, Grand Island, N.Y., USA). Half of the TCM was removed and replaced with fresh TCM containing peptides (20 μg/mL) every 5 days. After 14 days of culture, the cells were harvested and tested for their ability to produce IFN-γ in response to T2 cells (1×10^4 cells/well), which were pre-loaded with either PSGR peptide (5 μg/mL) or a control peptide (an irrelevant HL-A2 binding peptide: NLLTHVESL) as a negative control. After 18 hours of incubation, supernatants were collected, and IFN-γ release was determined by ELISA assay.
(§3) Cytokine release was measured by coating 96-well ELISA plates (Thermo Fisher Scientific; Rochester, N.Y., USA) with 1 μg/mL anti-human IFN-γ (Pierce Biotechnology; Rockford, Ill., USA) overnight at 4° C. The plate was washed six times with PBS containing 0.05% Tween-20 (wash solution) to remove unbound coating antibody, and blocked with 1% BSA/PBS at room temperature for 2 hrs. Afterwards, 50 μL supernatant was added to each well and incubated at room temperature for 1 hr, then 50 μL of 0.5 μg/mL biotinylated anti-human IFN-γ (Pierce Biotechnology; Rockford, Ill., USA) was added and plates were incubated for an additional 1 hr at room temperature. After incubation, plates were washed and incubated for 30 min with Poly-HRP-Streptavidin (Thermo Fisher Scientific; Rochester, N.Y., USA) diluted 1:5000 in PBS/1% BSA. Plates were washed and 100 μL of TMB substrate solution (Sigma-Aldrich Co.; St. Louis, Mo., USA) was added per well. The colorimetric reaction was stopped using 2N H2SO4 and plates were read at 450 nm using an ELISA plate reader.
Since peptide-specific T cells against PSGR3, PSGR4 and PSGR14 were found in more than 70% of healthy subjects, we reasoned that CTL precursors that recognize these 3 peptides may also be high in PBMCs of prostate cancer patients. To test our hypothesis, we examined whether these three peptide candidates can induce peptide-specific CTLs from the PBMCs of HLA-A2+ prostate cancer patients. PBMCs from prostate cancer patients were collected and stimulated in vitro with PSGR3, PSGR4 or PSGR14 peptides.

[2] = tested on: PBMCs of ten HLA-A2+ healthy subjects; assay: In vitro stimulation of peptide-specific T cells in PBMCs of healthy subjects, IFN-γ release by ELISA; conditions: for healthy subjects in which the peptide induced T cell responses: 10 HLA-A2+ healthy donors, IFN-γ ELISA after 2 weeks of peptide stimulation; for concentrations of IFN-γ in the supernatants: PBMCs stimulated 14 days with peptide 20 μg/mL, response to T2 cells pre-loaded with peptide 5 μg/mL
Procedure: as §1, §2, §3
To determine whether PSGR-reactive T cell precursors are present in healthy subjects, we obtained PBMCs from 10 HLA-A2+ healthy donors and stimulated them in vitro with each of the 21 PSGR-derived peptides containing HLA-A2-binding motif (Table 1). After 2 weeks of peptide stimulation, supernatants from peptide-stimulated T cells were analyzed by ELISA assay to detect IFN-γ release in response to T2 cells pulsed with or without corresponding peptides.

LNCaP cells = assay: Cytotoxicity of PSGR peptide-specific T cells by LDH assay against LNCaP; conditions: HLA-A2 positive, PSGR expressing LNCaP; T cells from healthy donors and patients; FIG. 2B
Procedure: The expression of PSGR mRNA in different cell lines was determined by RT-PCR (A). PSGR derived peptide-specific T cells were tested for cytotoxicity against both PC3 and LNCaP by the LDH assay (B). Data from B are plotted as means±SD. Results are representative of three independent experiments. *P<0.05, versus control.
Cells were stained with anti-CD8 and anti-IFN-γ, then analyzed on a FACScalibur machine (A). PSGR-derived peptide-specific T cells were co-incubated with LNCaP cells alone in medium, or with LNCaP cells in the presence of either anti-HLA-I mAb (W6/32), HLA-II mAb or a control mAb (anti-CD19 mAb). After 4 hours of incubation, the cytotoxicity against LNCaP was determined by the LDH assay (B). Data from B are plotted as means±SD. Results are representative of three independent experiments. *P<0.05, versus controls.
PSGR derived peptide-specific T cells were tested for cytotoxicity against both PC3 and LNCaP by a lactate dehydrogenase (LDH) assay (Promega; Madison, Wis., USA). The assay was performed in accordance with the manufacturer's instructions. LDH release was calculated based on the following formula: Cytotoxicity (%)=(Experimental−Effector Spontaneous−Target Spontaneous LDH release)/(Target Maximum−Target Spontaneous LDH release)×100.
Spontaneous release was determined by using the supernatant of the target cells alone or effector cells alone, and the maximum release was determined by using the supernatant of target cells incubated with a lysis solution included in LDH kit. To determine if T cell recognition is HLA-I restricted, anti-HLA-I, anti-HLA-II, or anti-CD19 mAb (all from ATCC, Manassas, Va., USA) were added into wells at the initiation of the culture.

| Sequence | induction of peptide-specific CTLs from PBMCs of prostate cancer patients [1] | concentrations of IFN-γ in the supernatants ([1]; prostate cancer patient #2) [pg/mL] | concentrations of IFN-γ in the supernatants ([1]; prostate cancer patient #3) [pg/mL] | concentrations of IFN-γ in the supernatants ([1]; prostate cancer patient #12) [pg/mL] | concentrations of IFN-γ in the supernatants ([1]; prostate cancer patient #13) [pg/mL] | concentrations of IFN-γ in the supernatants ([1]; prostate cancer patient #14) [pg/mL] | concentrations of IFN-γ in the supernatants ([1]; prostate cancer patient #15) [pg/mL] | concentrations of IFN-γ in the supernatants ([1]; prostate cancer patient #16) [pg/mL] | concentrations of IFN-γ in the supernatants ([1]; prostate cancer patient #17) [pg/mL] | concentrations of IFN-γ in the supernatants ([1]; prostate cancer patient #22) [pg/mL] | concentrations of IFN-γ in the supernatants ([1]; prostate cancer patient #25) [pg/mL] | healthy subjects in which the peptide induced T cell responses [2] | concentrations of IFN-γ in the supernatants ([2]; healthy subject #1) [pg/mL] | concentrations of IFN-γ in the supernatants ([2]; healthy subject #2) [pg/mL] | concentrations of IFN-γ in the supernatants ([2]; healthy subject #3) [pg/mL] | concentrations of IFN-γ in the supernatants ([2]; healthy subject #4) [pg/mL] | concentrations of IFN-γ in the supernatants ([2]; healthy subject #5) [pg/mL] | concentrations of IFN-γ in the supernatants ([2]; healthy subject #6) [pg/mL] | concentrations of IFN-γ in the supernatants ([2]; healthy subject #7) [pg/mL] | concentrations of IFN-γ in the supernatants ([2]; healthy subject #8) [pg/mL] | other results |
| --- | --- | --- | --- | --- | --- | --- | --- | --- | --- | --- | --- | --- | --- | --- | --- | --- | --- | --- | --- | --- | --- |
| VILANIYLLV (PSGR14) | indeed induced peptide-specific CTLs | 344 | 116 | 272 | 23 | 0 | 24 | 0 | 100 | 8 | 11 | 7 out of 10 | 471 | 0 | 115 | 0 | 124 | 296 | 843 | 0 | concentrations of IFN-γ in the supernatants ([2]; healthy subject #9): 346 pg/mL; concentrations of IFN-γ in the supernatants ([2]; healthy subject #10): 854 pg/mL; recognition and killing of LNCaP by peptide-specific T cells (LNCaP cells): could recognize and kill |
| WLAFPLCSL (PSGR4) | indeed induced peptide-specific CTLs | 451 | 351 | 0 | 301 | 309 | 70 | 6.7 | 102 | 56 | 27 | 7 out of 10 | 302 | 152 | 457 | 0 | 407 | 226 | 847 | 0 | concentrations of IFN-γ in the supernatants ([2]; healthy subject #9): 0 pg/mL; concentrations of IFN-γ in the supernatants ([2]; healthy subject #10): 459 pg/mL; recognition and killing of LNCaP by peptide-specific T cells (LNCaP cells): could recognize and kill |
| ILANIYLLV (PSGR3) | indeed induced peptide-specific CTLs | 525 | 503 | 326 | 217 | 0 | 282 | 35 | 156 | 103 | 22 | 7 out of 10 | 127 | 398 | 393 | 768 | 227 | 183 | 645 | 0 | concentrations of IFN-γ in the supernatants ([2]; healthy subject #9): 394 pg/mL; concentrations of IFN-γ in the supernatants ([2]; healthy subject #10): 0 pg/mL; recognition and killing of LNCaP by peptide-specific T cells (LNCaP cells): could recognize and kill |
